These results are taken from PubChem BioAssay AID463130 (The Scripps Research Institute Molecular Screening Center, 2010).

The target in the assay is Protein phosphatase methylesterase 1 (Homo sapiens) (UniProt Q9Y570). As to the kind of experiment: PME-1 inhibitors by competitive ABPP, late-stage follow-up, gel-based ABPP, IC50, set 1 (AID 463130). To be noted: fluorophosphonate probe labeling.
Protein phosphatase methylesterase 1 (Homo sapiens), sequence (Q9Y570 whole entry, looked up): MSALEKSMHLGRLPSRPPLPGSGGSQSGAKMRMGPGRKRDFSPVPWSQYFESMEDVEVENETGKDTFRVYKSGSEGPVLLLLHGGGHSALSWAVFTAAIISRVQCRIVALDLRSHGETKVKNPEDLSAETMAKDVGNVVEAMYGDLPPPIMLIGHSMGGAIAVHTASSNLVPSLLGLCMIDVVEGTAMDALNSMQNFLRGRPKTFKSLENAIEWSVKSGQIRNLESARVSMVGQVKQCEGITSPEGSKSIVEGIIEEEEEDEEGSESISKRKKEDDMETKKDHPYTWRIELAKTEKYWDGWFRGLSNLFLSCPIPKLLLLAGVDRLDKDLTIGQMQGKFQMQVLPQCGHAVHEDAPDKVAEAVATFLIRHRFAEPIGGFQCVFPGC

For the compound `COC(=O)N1C(=O)[C@](c2ccccc2)(C(C)C)N1C(=O)OC`, the IC50 was 195 nM.

One may read the IC50 as the concentration needed to halve the response being measured.
